Measured values from US12180146B2, “Antihypertensive polyol compound and derivative thereof” (TAO PHARMACEUTICAL (SUZHOU) CO., LTD, priority 2020, dated 2024).

Legend:
[1] = tested on: monocrotaline-induced pulmonary hypertension model rats (MCT-PAH); assay: Monocrotaline-induced pulmonary hypertension model rats, oral (gavage) treatment for 21 days; assay type: in vivo, SD rats
From the text: Monocrotaline (MCT) was subcutaneously injected to establish an animal model of pulmonary hypertension in SD rats. At the same time, compound 1 was given by gavage for treatment. The pulmonary artery hemodynamics and right heart hypertrophy index RVHI of the rates were detected to determine whether the oral administration of compound 1 has effects of improving Monocrotaline induces pulmonary hypertension.
(§1) SD rats (purchased from Shanghai Xipuer-Bikai Experimental Animal Co., Ltd.), male, weighing 180-200 g, were bred in an artificially controlled animal room with each 12 hours of light and darkness at a temperature of 20-25° C. and relative humidity of 50-60%, and allowed ad libitum to food and water. The rats were randomly divided into groups according to the experimental requirements, and kept separately in cages, with 3 to 4 rats per cage. All relevant operations of animal experiments are in compliance with the provisions of “Guidelines for the Management and Use of Laboratory Animals” of China.
During the experiment, SD rats were randomly divided into 4 groups: blank control group, pulmonary hypertension model group, Selexipag (1 mg/kg) treatment group and compound 1 (100 mg/kg) group with 6 rats in each group, and the concentration in brackets represents the administration concentration of the compound, in which Selexipag is a new oral long-acting prostacyclin receptor agonist discovered and synthesized by Japan New Drug Co., Ltd. On the first day of the experiment, normal saline was injected subcutaneously into the back of neck of rats in the blank control group, and monocrotaline (Chengdu Purifa Biotechnology Co., Ltd.) solution was injected in the rats in other groups at a dosage of 60 mg/kg. Both the positive drug, Selexipag and Compound 1 were administered by gavage. Selexipag and […] were dissolved in 0.5% CMC-Na solution. The rats were continuously administered for 21 days with a volume of […]. The rats in the control and model groups were given the corresponding volume of CMC-Na solution by gavage. Specific groupings can be found in Table 7.
After the administration, the pulmonary vascular hemodynamics and RVHI was determined according to the same experiment method as that in Example 1.

[2] = tested on: hypoxic pulmonary hypertension model rats; assay: Hypoxic pulmonary hypertension model rats, oral (gavage) treatment for 28 days; assay type: in vivo, SD rats; settings: hypoxic PAH rats; for 2 × MT/ED / RVHI / RVSP / mPAP: po
Experimental: An animal model of pulmonary hypertension in SD rats was established in a hypoxic and low-pressure environment, and compound 1 was administered by gavage at the same time for treatment. The rat pulmonary artery hemodynamics and right heart hypertrophy index RVHI were measured to determine whether compound 1 has effects of improving hypoxic pulmonary hypertension.
as §1
The hypoxic PAH model was established by placing SD male rats in a fully-automatically regulated low-pressure hypoxic chamber (atmospheric pressure of about 50 kPa, oxygen concentration of 10%) for 8 hours a day for 28 days. The rats in the blank control group were kept in a normoxic environment.
The experimental rats of hypoxic PAH model were divided into 8 groups, namely blank control group, model group, Sidenafil (25 mg/kg) group, compound 1 (10 mg/kg) group, compound 1 (25 mg/kg) group, compound 1 (50 mg/kg) group, compound 1 (100 mg/kg) group, and compound 1 (200 mg/kg) group. The concentration in the parentheses of the group name represents the administration concentration of the compound or drug. In hypoxia-induced PAH experiments, Sidenafil is often used as a positive drug, which can reduce the pulmonary artery pressure in rats and reduce the right ventricular hypertrophy and vascular remodeling. In this experiment, 25 mg/kg of Sidenafil was used as the positive drug. Both the positive drugs Sidenafil and Compound 1 were dissolved in physiological saline and formulated into solutions of different concentrations according to different administration concentrations. The rats were continuously administered for 28 days with an administration volume of 5 ml/kg. Rats in the control and model groups were given the corresponding volume of physiological saline solution via gavage. The specific grouping can be found in Table 5.
After the administration was completed, the POWERLAB biological information acquisition and treatment system was started, and the right cardiac catheter filled with 0.2% heparin sodium (Beijing Solo Technology Co. Ltd.) in normal saline was connected to the pressure transducer and then zero-calibrationed for use. After 20% urethane (Shanghai Yuanye Biotechnology Co., Ltd.) solution was injected into the abdominal cavity of the rats for anesthesia, the right neck hair was shaved and the right jugular vein was isolated and exposed. […] After the typical right ventricular waveform appeared and stabilized for a while, the waveform was recorded, and then the pressure value was read by Powerlab biological information acquisition and processing system (ADInstruments).
After the pressure was measured, the catheter was taken out, and the rat was dissected immediately to take out the heart and lung tissues. The right ventricle (RV) and the left ventricle and interventricular septum (LV+S) were separated and weighed, and the right heart hypertrophy index RVHI=RV/(LV+S) was calculated. The lung lobe tissue from the right lower part of the lung was separated, soaked in 4% paraformaldehyde (Sigma) for about 1 week to prepare a paraffin section with a thickness of 3 μm, and then conducted to hematoxylin-eosin staining (Wuhan Guge Biotechnology Co., Ltd.). […]

[3] = tested on: spontaneously hypertensive rats (SHR); assay: Antihypertensive activity test: blood pressure and heart rate of spontaneously hypertensive rats (SHR); assay type: in vivo, rat; settings: 200 mg/kg; for SHR blood pressure (SBP), time after administration 1 h / SHR blood pressure (SBP), time after administration 2 h / SHR blood pressure (SBP), time after administration 3 h / SHR blood pressure (SBP), time after administration 4 h / SHR blood pressure (SBP), time after administration 5 h / SHR blood pressure (SBP), time after administration 6 h: n = 8
How it was run: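 Spontaneously hypertensive rats received compound at 200 mg/kg. SBP and heart rate were measured before and after dosing. A drop in SBP of ≥20 mmHg from baseline counted as effective, and heart-rate changes were tested by paired t-test (P<0.05).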

[4] = tested on: monocrotaline-induced pulmonary hypertension model rats (MCT-PAH); assay: Monocrotaline-induced pulmonary hypertension model rats, aerosol inhalation treatment; assay type: in vivo, SD rats; settings: 30 mg/kg, inh, 28 days
Experimental: A pulmonary hypertension animal model of SD rats was established by subcutaneous injection of monocrotaline (MCT). The compound 1 was administered by aerosol inhalation for treatment. The pulmonary artery hemodynamics and right heart hypertrophy index RVHI of rats were tested to determine whether compound 1 administered by aerosol inhalation has effects of improving monocrotaline-induced pulmonary hypertension.
as §1
In the second experiment, the rats were divided into 5 groups, namely the control group, model group, positive control Tyvaso (1.62 μg/kg) group, compound 1 (10 mg/kg) group and compound 1 (30 mg/kg) group. On the first day of the experiment, normal saline was injected subcutaneously into the back of the neck of the rats in the blank control group, and monocrotaline (Chengdu Purifa Biotechnology Co., Ltd.) solution was injected in the other groups at a dosage of 60 mg/kg. Compound 1 and Tyvaso were administered by aerosol inhalation, that is, the compound was firstly dissolved in physiological saline, and then the solution was prepared into an aerosol with a nebulizer to be inhaled into the mouth and nose of rats. The rats in the control group and the model group only inhaled an aerosol made of physiological saline. The rats were continuously administered for 28 days, and the concentration in the parentheses of the group name represents the administered concentration of the compound. Specific groupings can be found in Table 9. After the administration, the pulmonary vascular hemodynamics and RVHI were determined in the same way as the experiment method in Example 1.

SMILES | 2 × MT/ED ([1]; 100 mg/kg) | RVHI ([1]; 100 mg/kg) | RVSP ([1]; 100 mg/kg) [mmHg] | mPAP ([1]; 100 mg/kg) [mmHg] | 2 × MT/ED ([2]; 200 mg/kg) | RVHI ([2]; 200 mg/kg) | RVSP ([2]; 200 mg/kg) [mmHg] | mPAP ([2]; 200 mg/kg) [mmHg] | SBP Difference before and after administration, 1 h [3] [mmHg] | SHR blood pressure (SBP), time after administration 1 h [3] [mmHg] | SBP Difference before and after administration, 2 h [3] [mmHg] | SHR blood pressure (SBP), time after administration 2 h [3] [mmHg] | SBP Difference before and after administration, 3 h [3] [mmHg] | SHR blood pressure (SBP), time after administration 3 h [3] [mmHg] | SBP Difference before and after administration, 4 h [3] [mmHg] | SHR blood pressure (SBP), time after administration 4 h [3] [mmHg] | SBP Difference before and after administration, 5 h [3] [mmHg] | SHR blood pressure (SBP), time after administration 5 h [3] [mmHg] | SBP Difference before and after administration, 6 h [3] [mmHg] | SHR blood pressure (SBP), time after administration 6 h [3] [mmHg] | also measured
CCc1ccccc1C(O)CO (centres unmarked) [Compound 5] | 0.29 ± 0.054 | 0.35 ± 0.048 | 44.32 ± 2.12 | 15.76 ± 2.71 | 0.270 ± 0.012 | 0.271 ± 0.038 | 60.29 ± 3.87 | 15.76 ± 2.71 | 20 | 169 ± 6.32 | 15 | 174 ± 4.56 | 18 | 171 ± 9.34 | 16 | 173 ± 13.66 | 15 | 174 ± 15.9 | 11 | 178 ± 8.48 | 2 × MT/ED [4]: 0.390 ± 0.038; RVHI [4]: 0.324 ± 0.053; RVSP [4]: 40.18 ± 4.62 mmHg; mPAP [4]: 11.06 ± 2.95 mmHg
OCC(O)c1cccc(F)c1 (centres unmarked) [Compound 7] | 0.27 ± 0.045 | 0.33 ± 0.058 | 42.31 ± 2.78 | 15.67 ± 2.70 | 0.291 ± 0.023 | 0.261 ± 0.037 | 62.78 ± 3.41 | 16.64 ± 2.08 | 16 | 177 ± 9.56 | 21 | 172 ± 7.36 | 22 | 171 ± 4.07 | 20 | 173 ± 6.18 | 18 | 175 ± 5.63 | 13 | 180 ± 7.61 | 2 × MT/ED [4]: 0.375 ± 0.024; RVHI [4]: 0.267 ± 0.013; RVSP [4]: 44.61 ± 2.96 mmHg; mPAP [4]: 12.45 ± 2.41 mmHg
COc1cccc(C(O)CO)c1 (centres unmarked) [Compound 8] | 0.31 ± 0.052 | 0.33 ± 0.037 | 45.97 ± 3.49 | 16.47 ± 3.07 | 0.277 ± 0.022 | 0.296 ± 0.027 | 62.50 ± 2.91 | 17.19 ± 3.65 | 6 | 188 ± 12.4 | 13 | 181 ± 12.7 | 18 | 176 ± 11.1 | 18 | 176 ± 10.3 | 14 | 180 ± 11.3 | 8 | 186 ± 10.4 | SBP Difference before and after administration, 0 h ([3]; 0 h): 0 mmHg; 2 × MT/ED [4]: 0.353 ± 0.043; RVHI [4]: 0.306 ± 0.027; RVSP [4]: 45.92 ± 3.47 mmHg; mPAP [4]: 14.16 ± 3.84 mmHg
CCCc1nn(C)c2c(=O)[nH]c(-c3cc(S(=O)(=O)N4CCN(C)CC4)ccc3OCC)nc12 [Sildenafil, reference compound] |  |  |  |  |  |  |  |  |  |  |  |  |  |  |  |  |  |  |  |  | value of RV/(LV+S), remodeling of the right ventricle ([2]; 25 mg/kg, gavage): effectively reduce; 2 × MT/ED ([2]; 25 mg/kg): 0.238 ± 0.018; RVHI ([2]; 25 mg/kg): 0.240 ± 0.028; RVSP ([2]; 25 mg/kg): 50.12 ± 2.96 mmHg; mPAP ([2]; 25 mg/kg): 14.34 ± 2.48 mmHg
CC(C)N(CCCCOCC(=O)NS(C)(=O)=O)c1cnc(-c2ccccc2)c(-c2ccccc2)n1 [selexipag, reference compound] |  |  |  |  |  |  |  |  |  |  |  |  |  |  |  |  |  |  |  |  | pulmonary arteriole hypertrophy vs. Model ([1]; 1 mg/kg): significantly reduced; 2 × MT/ED ([1]; 1 mg/kg, twice a day): 0.30 ± 0.086; RVHI ([1]; 1 mg/kg, twice a day): 0.27±0.026; RVSP ([1]; 1 mg/kg, twice a day): 35.67 ± 2.89 mmHg; mPAP ([1]; 1 mg/kg, twice a day): 8.78 ± 1.98 mmHg
